Laboratory results: PubChem BioAssay AID1508591

Details: rat; liver microsomes; pH 7.4; 15.0 min; 1.0 µM

Structure (SMILES)	half-life
Cc1ccc(-c2nn(C(C)(C)C)c3ncnc(N)c23)cc1	4.87 min
O=S(=O)(Nc1nccs1)c1ccc(NCc2cccc(F)c2O)cc1	16 min
CC1=C(C(=O)NC2CCCCC2)C(c2ccccc2Br)N=C(Nc2nc3ccccc3o2)N1 (stereo not given)	7.4 min
O=C(Cc1ccc(Cl)c(Cl)c1)Nc1ccc([S+](=O)([O-])Nc2ccccn2)cc1	8.3 min
Cc1ccc(C)c(SC2=NS(=O)(=O)c3ccccc32)c1	1.21 min
Cc1nn2c(c1-c1ccccc1-c1ccccc1)N(Cc1ccc(O)cc1)CCC2	1.97 min
Cc1ccc(-c2ccc(CNc3nc(-c4ccccc4C(C)C)ncc3C)cc2)cn1	4.28 min
O=C(CSc1nc(-c2ccc(F)cc2)[nH]c1-c1ccc(F)cc1)Nc1ccc2c(c1)OCCO2	1.19 min
COc1cc(OC)cc(-c2csc(N3CCC(C(N)=O)CC3)n2)c1	2.09 min
CCOc1cc(F)c(CCNC(=O)c2cc3sccc3n2Cc2ccccc2)cc1OCC	1.8 min
CCOc1ccc(N2C(=O)c3n[nH]c(-c4cccs4)c3C2c2cccc(F)c2)cc1 (stereo not given)	14.2 min
CCc1ccc(NC(=O)c2[nH]c(C)c(C(C)=O)c2C)cc1S(=O)(=O)Nc1ccc(C#N)cc1	14.7 min
Cc1nn2c(c1-c1ccccc1-c1ccccc1)N(Cc1ccccc1)CCC2	1.23 min
Fc1ccc(Nc2nc(-n3ccnc3)nc3ccccc23)cc1F	> 30 min
Cc1ccc(S(=O)(=O)Nc2cnccc2C(=O)Nc2nc(-c3ccc4c(c3)CCCC4)cs2)cc1	2.3 min
COC(=O)c1cc2occc2n1Cc1nc(-c2ccc(C)cc2)oc1C	3.86 min
CC(=O)c1ccc(N2CCN(S(=O)(=O)c3ccc4[nH]c(=O)[nH]c4c3)CC2)cc1	> 30 min
CC(=O)NCc1ccc(-c2csc(Nc3cc(C)cc(C)c3)n2)o1	> 30 min
Cc1cccc(-n2ncc3c2CCCC3NC(=O)c2c(F)ccc(F)c2F)c1C (stereo not given)	0.96 min
CCN1CCCC1CNCc1ccccc1 (stereo not given)	2.5 min
CC(CCc1ccc(O)cc1)NCc1ccc(Cl)cc1Cl (stereo not given)	1.7 min
COc1ccc(C(=O)Nc2ccc3c(c2)N(C2CCCC2)C(=O)c2ccccc2S3)cc1OC	1.7 min
CCOc1ccc(/C=C/c2nc3ccccc3n2S(=O)(=O)c2cccc(Cl)c2)cc1	> 30 min
COc1cccc(CNc2ccc(S(=O)(=O)Nc3cccc(N4CCNCC4)c3)cc2)c1O	> 30 min
Cc1cnc(-c2ccccc2C(C)C)nc1NCC1CCN(C2COC2)CC1	7.7 min
COc1ccc(-c2nc3sc(CCNC(=O)C(C)(C)C)c(C)n3n2)cc1	9.33 min

Structure (SMILES)	half-life
CCOc1ccc(CCNC(=O)c2ccccc2)cc1OCC	1.5 min
COc1c(O)cc2c(c1OC)-c1ccc(SC)c(=O)cc1C(NC(C)=O)CC2 (stereo not given)	> 30 min
Cc1ccccc1C(=O)N1CCc2cc(-c3nc(NC(=O)c4ccc5c(c4)OCO5)sc3C)ccc21	> 30 min
Cc1cccc(Nc2nc(NCc3ccco3)c3ccccc3n2)c1	3.54 min
COc1ccc(-c2nc3ccccc3c(=O)n2Cc2ccccc2)cc1COc1ccc(NC(C)=O)cc1	3.16 min
Cc1cnc(CNc2nc(-c3ccccc3Cl)nc3ccccc23)cn1	20 min
COC(C)(C)CCn1nc(Nc2c(C)cccc2C)c2cnc(Nc3ccc(OCCN4CCCC4)c(F)c3)nc21	3.28 min
CNCc1ccc(-c2cc(-c3nc(-c4ccc(S(=O)(=O)C(C)C)cc4)cnc3N)on2)cc1	> 30 min
O=C1Nc2ccc(C(=O)c3ccco3)cc2/C1=C/c1cc(Cl)c(O)c(Cl)c1	7.7 min
Cc1cc(-c2nnc3n2CCCCC3)c(C)n1-c1ccc(C#N)cc1	3.6 min
CCCNC(=O)c1ccc2c(c1)N=C(C)c1c(C)ccc(C)c1S2	1.34 min
N#Cc1cccc(Nc2ncc(-c3cccc4ccccc34)o2)c1	> 30 min
CCn1c(C(=O)NCCc2ccc(OC)cc2)cc2sccc21	1.9 min
COC(=O)CNC(=O)c1nc(-c2ccccc2OC)c2ccccn12	5.38 min
COc1ccc(S(=O)(=O)N(C(=O)C(C)C)c2ccc3oc(=O)sc3c2)cc1	2.2 min
O=C1Nc2cccc(Cl)c2/C1=C\c1cc(Cl)c(O)c(Cl)c1	> 30 min
CC(C)c1c(-c2ccccc2)nc2c(C#N)c[nH]n2c1=O	> 30 min
Oc1ccc(CNc2ccccc2F)c2cccnc12	3.7 min
NCC1CCC(C(=O)Oc2ccc(CCC(=O)O)cc2)CC1 (stereo not given)	> 30 min
COc1ccc(-c2ccc3nc(-c4ccccc4C)oc3c2)c(OC)c1OC	> 30 min
Oc1cccc2nc3ccccc3nc12	8.9 min
CC(C)c1ccccc1-c1nc(NCc2ccc(-c3cccnc3)cc2)c2ccccc2n1	9.21 min
CSc1cccc(NC(=O)CC[C@H]2O[C@@H]3O[C@]4(C)CC[C@H]5[C@H](C)CC[C@@H]([C@@H]2C)[C@@]35OO4)c1	2.3 min
O=C1Nc2ccccc2/C1=C\c1ccc(C(=O)O)cc1	> 30 min
Cc1cccc(-n2cnc3cc(C(=O)N4CCCC(C)C4)ccc32)c1 (stereo not given)	2.5 min

Other lines, results leading:

half-life	Structure (SMILES)
> 30 min	Cc1cc(C)nc(NC(=S)N2CCN(c3ccc(C(F)(F)F)cc3[N+](=O)[O-])CC2)c1
5.8 min	Cc1nnc(-c2ccccc2C(C)C)nc1NCc1ccc(-c2cccnc2)cc1
> 30 min	CC(=O)c1c(C)[nH]c(C(=O)N(C)C)c1C
> 30 min	Cc1ccc(C(N)=O)cc1Nc1nccc(-c2cn(C(C)C)c3cnccc23)n1
2.31 min	CCOC(=O)CCNc1cc(N2CCc3ccccc3CC2)nc(-c2cccnc2)n1
> 30 min	O=C(O)c1ccc(Nc2nc(-c3cc4ccccc4oc3=O)cs2)cc1O
2.05 min	CC(=O)OCCN1C(=O)c2c(C)nc3ccc(S(=O)(=O)N4CCOCC4)cc3c2C1=O
> 30 min	Nc1ccccc1CNc1ccc(S(=O)(=O)Nc2nccs2)cc1
3.28 min	COc1ccc(S(=O)(=O)N(CC(=O)Nc2ccc(C)cc2)c2ccc(C)cc2)cc1OC
17 min	O=C1CCCC2=C1C(c1[nH]ncc1Cl)N=C(Nc1nc3cc(F)ccc3o1)N2 (stereo not given)
> 30 min	Cc1ccc(S(=O)(=O)Nc2cnccc2C(=O)Nc2ccc(-c3nn[nH]n3)cc2)cc1
20 min	O=C(Nc1nc(-c2ccccc2)cs1)c1ccncc1NS(=O)(=O)c1ccc(F)cc1
> 30 min	COc1cccc(CNc2ccc(S(=O)(=O)Nc3nc(C)cs3)cc2)c1O
7.7 min	CNc1nccc(-c2cccc3ccccc23)n1
23.8 min	Cc1ccc(-c2cc(C(=O)Nc3ccccn3)c3ccccc3n2)cc1
1.6 min	COc1ccc(C2Nc3ccccc3C(=O)N2Cc2ccco2)cc1 (stereo not given)
> 30 min	COc1cccc(CNc2ccc(S(=O)(=O)Nc3nccs3)cc2)c1N
> 30 min	CC1(C)CCC(CN2CCN(c3ccc(C(=O)NS(=O)(=O)c4ccc(NCC5CCOCC5)c([N+](=O)[O-])c4)c(Oc4cnc5[nH]ccc5c4)c3)CC2)=C(c2ccc(Cl)cc2)C1
2.89 min	CN1CCCN(C(c2ccccc2)c2ccc(Cl)cc2)CC1 (stereo not given)
5.96 min	OC1(CN2CCN(c3ccc(F)c(Cl)c3)CC2)CCCNC1 (stereo not given)
28 min	Cc1cc(C)nc(NC(=S)N2CCN(c3cccc(C(F)(F)F)n3)CC2)c1
11 min	O=C(Nc1ccccc1C(=O)Nc1ccccc1C(=O)NCc1ccco1)c1ccco1
22.7 min	Cc1ccc(-n2ncc3c(NCCCn4ccnc4)ncnc32)cc1Cl
21 min	Cc1cnc(-c2ccccc2C(F)F)nc1NCc1ccc(-n2ccnn2)cc1
5.3 min	Cc1ccc(S(=O)(=O)Nc2cnccc2C(=O)Nc2ccc(S(=O)(=O)Nc3nccs3)cc2)cc1
16 min	O=C([C@H](Cc1ccc(O[S+](=O)([O-])c2cccc3cnccc23)cc1)N[S+](=O)([O-])c1cccc2cnccc12)N1CCN(Cc2ccccc2)CC1
1.64 min	CN(Cc1ccccc1)C(=O)c1ccc(S(=O)(=O)Nc2ccccc2)cc1

half-life	Structure (SMILES)
24 min	COc1ccc(Cl)cc1C(=O)Nc1nc(-c2ccccc2)cs1
> 30 min	COC(=O)Nc1nc2ccc(C(=O)c3ccccc3)cc2[nH]1
18 min	O=[S+]([O-])(Nc1ccc(-c2ccccc2)cc1)c1ccc(NCc2ccc(Cl)cc2O)cc1
4.29 min	Cn1c2ccccc2c2c3c(c4c5ccccc5n(CCC#N)c4c21)CNC3=O
5.6 min	CCOc1ccc(CCNC(=O)c2ccnn2Cc2ccccn2)cc1OCC
2.09 min	c1ccc(Nc2cc3c(cn2)CN(Cc2ccc4[nH]ccc4c2)CCN3)cc1
7.35 min	COc1cc(Nc2nc(-c3ccncc3)nc3ccccc23)ccc1F
26 min	COc1ccccc1C(=O)Nc1nc2nc(C)cc(=O)n2[nH]1
> 30 min	COc1ccc(-n2nc(C3CCN(C(=O)C4CC4)CC3)[nH]c2=O)cc1
3.17 min	COc1cccc(Cn2c(=O)n(-c3cccc(Cl)c3C)c(=O)c3c4c(sc32)CN(C(C)=O)CC4)c1
2.17 min	COc1ccc(-c2nc3ccccc3c(=O)n2Cc2ccco2)cc1COc1ccc(NC(C)=O)cc1
1.4 min	CCOC(=O)C1CCN(C(=O)C(C)(C)NC(=O)Nc2ccc(-c3ccccc3)cc2)CC1
1.7 min	CCOc1ccc(CCNC(=O)c2cc3sccc3n2Cc2ccccc2)cc1OCC
1.48 min	CC(=O)c1c(C)oc2ccc(N(C(=O)Oc3ccccc3)S(=O)(=O)c3ccccc3)cc12
> 30 min	Cc1cc(NS(=O)(=O)c2ccc(NC(=O)Cc3ccc(F)c(Cl)c3)cc2)no1
10 min	c1ccc2c(N3CCOCC3)nc(-c3ccncc3)nc2c1
> 30 min	CC(=O)NCc1ccc(-c2csc(Nc3cccc(C)c3)n2)o1
12 min	COc1cc(/C=C2\C(=O)Nc3ccccc32)ccc1O
> 30 min	O=C(Nc1ccccc1)C1CC(=O)N(c2n[nH]c3cc(Br)ccc23)C1 (stereo not given)
3.9 min	O=C(Nc1nnc(-c2ccc(Cl)cc2)o1)c1ccc(Cl)c(Cl)c1
2.09 min	c1ccc(Nc2nc(NCc3ccco3)c3ccccc3n2)cc1
1.2 min	CCOC(=O)C1=C(CN(CC)Cc2ccccc2)NC(=O)NC1c1ccc(OC(C)C)cc1 (stereo not given)
2.2 min	O=C(c1ccncc1)N1CCC2(CCCN(C(c3ccccc3)c3ccccc3)C2)CC1
8.8 min	CN1CCN(c2ccc(Nc3nc(-c4ccncc4)nc4ccccc34)cc2F)CC1
2 min	CCOc1cc(CCNC(=O)c2cc3sccc3n2Cc2ccccc2)cc(F)c1OCC
28 min	Fc1cc(Nc2nc(-c3ccncc3)nc3ccccc23)ccc1OCC(F)(F)F
5.93 min	OCCOCCN1CCN(C(c2ccccc2)c2ccc(Cl)cc2)CC1 (stereo not given)
